Test results reported in US8486990B2, “SirT inhibitors that bind to NAD” (Elixir Pharmaceuticals, Inc., priority 2003, dated 2013).
Entries after “also recorded” stand apart in the source; their conditions may differ.

Assays:
Type in all cases: cell-based
[1] = system: HeLa cell; experiment: HeLa apoptosis assay (Cell Death Detection ELISA plus kit)
Description: The following exemplary compounds were evaluated for their effect on a HeLa cell apoptosis assay using the Cell Death Detection ELISA plus kit from Roche Applied Science.

[2] = target: T1, yeast sir2 (Saccharomyces cerevisiae, UniProt P06700); experiment: yeast silencing assay (strain SL8c, URA at the telomere, 5FOA growth); settings: SD+0.1% 5FOA, 30° C., 18-24 hrs
T1 construct: endogenous in cells; host or cells: yeast strain SL8c (URA at the telomere)
T1 sequence (P06700 whole entry): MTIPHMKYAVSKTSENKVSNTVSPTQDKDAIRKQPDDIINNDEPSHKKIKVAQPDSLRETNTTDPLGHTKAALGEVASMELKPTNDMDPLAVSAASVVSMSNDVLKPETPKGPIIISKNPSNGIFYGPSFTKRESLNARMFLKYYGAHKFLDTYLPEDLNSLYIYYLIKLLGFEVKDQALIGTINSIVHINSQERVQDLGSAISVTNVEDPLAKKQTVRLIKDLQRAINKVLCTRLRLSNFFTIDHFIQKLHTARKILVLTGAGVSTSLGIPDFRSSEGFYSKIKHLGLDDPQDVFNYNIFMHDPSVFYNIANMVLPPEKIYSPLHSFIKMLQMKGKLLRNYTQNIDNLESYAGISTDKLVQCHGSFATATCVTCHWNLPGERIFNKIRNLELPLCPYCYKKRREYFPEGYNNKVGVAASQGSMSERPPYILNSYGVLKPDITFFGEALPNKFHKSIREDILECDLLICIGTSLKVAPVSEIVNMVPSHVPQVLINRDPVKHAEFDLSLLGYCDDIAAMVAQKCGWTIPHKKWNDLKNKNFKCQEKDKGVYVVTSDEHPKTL
Description: Strain SL8c (URA at the telomere) was used for yeast based assay to screen compounds. Cells were grown in -URA media to select de-silenced cells. The next day cells were diluted 1:20 into fresh YPD with 2% glucose then grow for 5 hrs. Cells were then diluted OD=0.01 in both SD and SD+0.1% 5FOA media. The compounds were then serially diluted into 10 ul of SD or SD+0.1% 5FOA medium. 140 ul of cells were pipetted into a 96 well plate and grown at 30° C. for 18-24 hrs.

[3] = system: acetylated p53 (at lysine 382) in NCI-H460 cells; experiment: p53 acetylation (lysine 382) in etoposide-treated NCI-H460 cells, Western blot; settings: for acetylation of p53 (lysine 382) by enantiomers: 6 hours, 20 micromolar etoposide, immunoprecipitation of p53
[4] = target: T2, GFP-hSIRT2 isoform 1 (Homo sapiens, UniProt Q8IXJ6); experiment: acetylated tubulin staining in HeLa cells transfected with GFP-hSIRT2; settings: 1 μM TSA, 50 μM compound
T2 sequence (Q8IXJ6 1-389): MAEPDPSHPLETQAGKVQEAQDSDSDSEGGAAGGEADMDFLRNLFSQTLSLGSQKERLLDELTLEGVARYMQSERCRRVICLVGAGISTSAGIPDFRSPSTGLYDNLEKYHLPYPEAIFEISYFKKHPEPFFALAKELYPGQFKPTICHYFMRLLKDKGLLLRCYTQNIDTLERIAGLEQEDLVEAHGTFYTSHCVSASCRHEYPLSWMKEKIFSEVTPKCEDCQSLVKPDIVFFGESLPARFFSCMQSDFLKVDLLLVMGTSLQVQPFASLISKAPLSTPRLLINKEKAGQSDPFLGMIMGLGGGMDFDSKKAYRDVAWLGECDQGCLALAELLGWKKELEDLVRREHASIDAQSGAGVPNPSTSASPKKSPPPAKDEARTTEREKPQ
Source text: HeLa cells were transfected with GFP-hSIRT2 isoform 1 (green). […] The next morning cells were fixed, permeabilized, and stained for acetylated tubulin (red).

[5] = system: acetylated lysine 382 of p53 in U20S cells; experiment: p53 acetylation (lysine 382) in etoposide-treated U20S cells; settings: 20 micromolar etoposide, 6 hours
[6] = system: p27 in HEK293 cells; experiment: p27 protein immunoblot in serum starved HEK293 cells; settings: HEK293, serum starved 24 hrs
[7] = system: NCI-H460 cells; experiment: cell survival after DNA damage with etoposide; settings: NCI-H460, varying concentrations of etoposide
Source text: NCI-H460 cells were damaged with varying concentrations of etoposide in the presence or absence of SIRT1 inhibitors.

[8] = system: acetylated lysine 382 of p53 in MCF7 cells; experiment: p53 acetylation (lysine 382) in etoposide-treated MCF7 cells; settings: MCF7, 20 micromolar etoposide, 6 hours
[9] = system: NCI-H460 cells; experiment: thymidine incorporation with etoposide and compound (cytostar plates); settings: NCI-H460, 1 micromolar compound, added concurrent to, prior to, and after etoposide
Description: Thymidine incorporation was measured at 24 hours intervals.

With `NC(=O)C1CCCc2c1[nH]c1ccccc21` (centres unmarked) [Compound 5, 2,3,4,9-Tetrahydro-1H-carbazole-1-carboxylic acid amide] the “average (HeLa apoptosis, Cell Death Detection ELISA)” value (shortened to “average”) ([1]; dose 0.5 (unit not given)) was 1.00, the “average” value ([1]; dose 2.5 (unit not given)) was 0.97 and the “average” value ([1]; dose 10 (unit not given)) was 1.07. The “average” value ([1]; dose 25 (unit not given)) was 0.91.

With `NC(=O)C1CCCc2c1[nH]c1ccc(Cl)cc21` (single isomer, unassigned) [8(−), 6-Chloro-2,3,4,9-tetrahydro-1H-carbazole-1-carboxylic acid amide] the “effect on yeast cell growth / silencing” value [2] was “preferentially inhibits yeast sir2 relative to enantiomer 8(+); also recorded: inhibits SIRT1 and allows for expression of URA3 which blocks growth in the presence of 5-fluorouracil” and the “acetylation of p53 (lysine 382) by enantiomers” value [3] was “significant increase in acetylation and stabilization of p53 protein”.

In the case of `NC(=O)C1CCCc2c1[nH]c1ccc(Cl)cc21` (centres unmarked) [Compound 8, 6-Chloro-2,3,4,9-tetrahydro-1H-carbazole-1-carboxylic acid amide], the “tubulin acetylation in cells expressing SIRT2” value [4] is reported as “the tubulin is more highly acetylated indicating that the effect of SIRT2 was blocked”, the “p53 acetylation (at lysine 382) after etoposide treatment” value ([3]; 20 uM etoposide, 1 uM and 10 uM equally effective, relative to DMSO) is reported as “increase p53 acetylation significantly relative to DMSO alone” and the “inhibition of SIRT1 / P53 acetylation” value [5] is reported as “competent to inhibit SIRT1 in a variety of cell lines with similar effects on P53 acetylation”. The “serum starvation-mediated upregulation of p27” value [6] was “abrogation of serum starvation-mediated upregulation of the cell cycle inhibitor p27”, the “average” value ([1]; dose 0.5 (unit not given)) was 1.23 and the “average” value ([1]; dose 2.5 (unit not given)) was 1.85. For the same compound, the “average” value ([1]; dose 10 (unit not given)) was 2.11, the “average” value ([1]; dose 25 (unit not given)) was 2.27 and the “p53 function measured as cell survival after DNA damage” value [7] was “did not modulate p53 function significantly”. For the same compound, the “inhibition of SIRT1 / P53 acetylation” value [8] was “competent to inhibit SIRT1 in a variety of cell lines with similar effects on P53 acetylation” and the “synergy with etoposide on growth characteristics (thymidine incorporation)” value [9] was “no synergy between etoposide and compound 8”.

In the case of `Oc1ccc(/C=C/c2cc(O)cc(O)c2)cc1` [Resveratol, reference compound], the “average” value ([1]; dose 0.5 (unit not given)) is reported as 0.83, the “average” value ([1]; dose 2.5 (unit not given)) is reported as 0.84 and the “average” value ([1]; dose 10 (unit not given)) is reported as 1.01. For the same compound, the “average” value ([1]; dose 25 (unit not given)) was 0.56.

For `NC(=O)C1CCCc2c1[nH]c1ccc(Cl)cc21` (single isomer, unassigned) [8(+), 6-Chloro-2,3,4,9-tetrahydro-1H-carbazole-1-carboxylic acid amide], the “effect on yeast cell growth / silencing” value [2] was “no effect on cell growth” and the “acetylation of p53 (lysine 382) by enantiomers” value [3] was “does not lead to increased acetylation of p53”.
